Calls of active or inactive are those of the source. No cut-off for these calls is given here.
How the values were obtained:
[1] = test system: Leucine-rich repeat serine/threonine-protein kinase 2 (Homo sapiens), Q5S007 [G2019S]; experiment: Inhibition of purified N-terminal GST-tagged LRRK2 G2019S mutant autophosphorylation activity using myelin basic protein as substrate at 25 uM
[2] = target: Leucine-rich repeat serine/threonine-protein kinase 2 (Homo sapiens, UniProt Q5S007, G2019S); experiment: Inhibition of purified N-terminal GST-tagged LRRK2 G2019S mutant autophosphorylation activity using [gamma32-P]ATP
[3] = target: Dual specificity tyrosine-phosphorylation-regulated kinase 1A (Homo sapiens) (UniProt Q13627); experiment: Inhibition of DYRK1A expressed in bacteria using [gamma32-P]ATP at 25 uM
[4] = test system: Leucine-rich repeat serine/threonine-protein kinase 2 (Homo sapiens), Q5S007 [G2019S]; experiment: Inhibition of LRRK2 G2019S mutant expressed in mouse SN4741 cells assessed as reduction in hydrogen peroxide-induced neurotoxicity at 10 uM by measuring cell survival after 48 hrs by crystal violet assay relative to control; assay type: cell-based
[5] = target: Leucine-rich repeat serine/threonine-protein kinase 2 (Homo sapiens) (UniProt Q5S007); experiment: Inhibition of wild type LRRK2 expressed in mouse SN4741 cells assessed as reduction in hydrogen peroxide-induced neurotoxicity at 10 uM by measuring cell survival after 48 hrs by crystal violet assay relative to control; assay type: cell-based
[6] = Neurotoxicity in rat primary cortical neurons assessed as cell survival at 10 uM after 24 hrs by MTT assay; assay type: toxicity, cell-based, Cerebral cortex neuron; conditions: read-out: Activity
[7] = Neurotoxicity in rat primary cortical neurons assessed as cell survival at 100 uM after 24 hrs by MTT assay; assay type: toxicity, cell-based; conditions: cerebral cortex neuron

Chain of Leucine-rich repeat serine/threonine-protein kinase 2 (Homo sapiens), Q5S007 [G2019S] (Q5S007 whole entry G2019S): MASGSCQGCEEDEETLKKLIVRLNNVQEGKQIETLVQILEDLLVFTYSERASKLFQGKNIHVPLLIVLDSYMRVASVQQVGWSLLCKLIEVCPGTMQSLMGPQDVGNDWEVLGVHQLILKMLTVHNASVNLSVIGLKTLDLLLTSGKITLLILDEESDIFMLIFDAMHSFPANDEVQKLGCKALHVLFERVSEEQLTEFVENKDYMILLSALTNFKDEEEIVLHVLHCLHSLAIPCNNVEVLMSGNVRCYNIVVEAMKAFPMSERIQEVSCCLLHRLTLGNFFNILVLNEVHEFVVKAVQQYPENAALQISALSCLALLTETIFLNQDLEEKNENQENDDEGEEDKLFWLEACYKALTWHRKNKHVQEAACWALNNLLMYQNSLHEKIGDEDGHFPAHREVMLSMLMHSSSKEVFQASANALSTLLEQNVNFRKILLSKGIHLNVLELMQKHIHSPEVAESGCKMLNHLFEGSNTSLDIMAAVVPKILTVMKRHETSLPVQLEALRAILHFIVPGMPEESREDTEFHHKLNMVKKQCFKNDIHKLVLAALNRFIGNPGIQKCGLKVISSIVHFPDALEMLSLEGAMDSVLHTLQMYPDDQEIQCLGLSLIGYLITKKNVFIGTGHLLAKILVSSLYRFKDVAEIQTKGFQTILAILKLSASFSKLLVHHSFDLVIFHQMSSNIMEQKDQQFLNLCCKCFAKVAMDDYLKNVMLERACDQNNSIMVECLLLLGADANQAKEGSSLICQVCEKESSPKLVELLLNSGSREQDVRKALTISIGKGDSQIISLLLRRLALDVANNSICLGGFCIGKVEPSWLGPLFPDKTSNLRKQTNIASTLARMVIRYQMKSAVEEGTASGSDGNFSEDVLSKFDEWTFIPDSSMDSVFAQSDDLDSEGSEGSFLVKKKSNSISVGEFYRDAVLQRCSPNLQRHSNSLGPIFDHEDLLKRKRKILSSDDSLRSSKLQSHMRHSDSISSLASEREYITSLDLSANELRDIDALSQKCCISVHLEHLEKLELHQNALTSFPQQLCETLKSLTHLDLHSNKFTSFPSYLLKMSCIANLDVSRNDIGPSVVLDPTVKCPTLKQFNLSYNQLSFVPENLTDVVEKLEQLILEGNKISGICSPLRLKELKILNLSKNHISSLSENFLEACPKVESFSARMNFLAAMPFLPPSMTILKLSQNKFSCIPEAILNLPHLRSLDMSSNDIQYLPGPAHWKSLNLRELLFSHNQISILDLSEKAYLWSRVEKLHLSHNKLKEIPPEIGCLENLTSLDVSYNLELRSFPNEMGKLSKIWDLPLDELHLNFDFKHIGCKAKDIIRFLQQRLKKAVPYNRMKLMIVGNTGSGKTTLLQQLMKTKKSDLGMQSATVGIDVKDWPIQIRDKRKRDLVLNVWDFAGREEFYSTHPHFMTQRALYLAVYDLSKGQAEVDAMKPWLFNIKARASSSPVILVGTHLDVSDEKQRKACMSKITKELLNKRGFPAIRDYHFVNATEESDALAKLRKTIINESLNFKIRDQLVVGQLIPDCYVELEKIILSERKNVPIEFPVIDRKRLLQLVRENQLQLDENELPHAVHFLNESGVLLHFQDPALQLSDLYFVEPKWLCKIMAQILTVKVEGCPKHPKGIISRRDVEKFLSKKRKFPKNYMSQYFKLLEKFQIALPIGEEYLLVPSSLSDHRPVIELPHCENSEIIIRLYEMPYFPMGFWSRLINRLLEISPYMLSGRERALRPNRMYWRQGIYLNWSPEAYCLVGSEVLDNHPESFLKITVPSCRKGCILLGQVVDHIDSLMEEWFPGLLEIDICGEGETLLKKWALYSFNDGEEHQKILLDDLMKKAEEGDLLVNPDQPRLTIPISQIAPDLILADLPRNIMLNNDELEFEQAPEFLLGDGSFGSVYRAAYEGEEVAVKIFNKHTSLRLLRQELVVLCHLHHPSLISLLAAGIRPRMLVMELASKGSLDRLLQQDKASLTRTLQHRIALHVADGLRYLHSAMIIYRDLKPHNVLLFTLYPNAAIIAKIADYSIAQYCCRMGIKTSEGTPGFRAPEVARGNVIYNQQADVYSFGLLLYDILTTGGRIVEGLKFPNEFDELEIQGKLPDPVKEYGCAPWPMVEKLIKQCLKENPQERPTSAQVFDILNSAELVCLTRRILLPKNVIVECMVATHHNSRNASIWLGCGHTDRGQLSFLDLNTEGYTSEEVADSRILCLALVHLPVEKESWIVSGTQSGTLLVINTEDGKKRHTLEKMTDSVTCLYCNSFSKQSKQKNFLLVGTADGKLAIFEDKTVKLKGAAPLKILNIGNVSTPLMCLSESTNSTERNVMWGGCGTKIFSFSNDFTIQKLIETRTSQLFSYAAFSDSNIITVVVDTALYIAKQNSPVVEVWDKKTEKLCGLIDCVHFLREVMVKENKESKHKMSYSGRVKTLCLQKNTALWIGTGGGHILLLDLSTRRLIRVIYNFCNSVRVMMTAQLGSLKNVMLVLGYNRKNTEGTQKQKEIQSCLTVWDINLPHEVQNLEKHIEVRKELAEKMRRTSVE
Chain of Leucine-rich repeat serine/threonine-protein kinase 2 (Homo sapiens) (Q5S007 whole entry): as the sequence (Q5S007 whole entry G2019S) above, with S2019G counted along it
Chain of Leucine-rich repeat serine/threonine-protein kinase 2 (Q5S007 whole entry G2019S): as the sequence (Q5S007 whole entry G2019S) above

In the case of `COc1cc(/C=N/Nc2nc3cc(C)ccc3cc2C)ccc1O`, the inhibition [1] is reported as “Active”.
In the case of `Cc1ccc2cc(C)c(N/N=C/c3ccc(O)cc3)nc2c1`, the inhibition [1] is reported as “Active”.
In the case of `Oc1ccc(/C=N/Nc2ccc3ccccc3n2)c(O)c1`, the inhibition [1] is reported as “Active”.
For `Cc1cc(N/N=C/c2ccc(O)c(O)c2)nc2ccccc12`, the IC50 [2] was 13.2 µM, the inhibition [3] was “inactive” and the Activity [4] was 50%. For the same compound, the Activity [5] was 50%, the viability at 24 h, 10 µM [6] was 85% and the Activity [7] was “Toxic”. For the same compound, the inhibition [1] was “Active”.
In the case of `COc1ccc(/C=N/Nc2ccc3ccccc3n2)cc1`, the inhibition [1] is reported as “Active”.

Reference: ChEMBL document CHEMBL1770059, “Identification of chemicals to inhibit the kinase activity of leucine-rich repeat kinase 2 (LRRK2), a Parkinson's disease-associated protein” (Bioorg Med Chem Lett, 2011)
